# In ChEMBL document CHEMBL1154149, “Antimalarial pharmacodynamics of chalcone derivatives in combination with artemisinin against Plasmodium falciparum in vitro” (Eur J Med Chem, 2009):
# Columns and labels:
# Plasmodium falciparum [1] = assay: Antiplasmodial activity against chloroquine-sensitive Plasmodium falciparum 3D7 infected in type B+ human erythrocytes assessed as reduction of hemozoin formation at IC50 after 48 hrs relative to control; format: functional; parameters: scale not given: the % may be the effect or the level left
# Plasmodium falciparum [2] = assay: Antiplasmodial activity against chloroquine-sensitive Plasmodium falciparum 3D7 infected in type B+ human erythrocytes assessed as inhibition of trophozoite stage parasite after 18 hrs followed by incubation in drug-free medium for 48 hrs by stage specific inhibition assay relative to control; format: functional
# Plasmodium falciparum [3] = assay: Antiplasmodial activity against chloroquine-sensitive Plasmodium falciparum 3D7 infected in type B+ human erythrocytes assessed as inhibition of schizont stage parasite after 12 hrs followed by incubation in drug-free medium for 48 hrs by stage specific inhibition assay relative to control; format: functional
# Plasmodium falciparum [4] = assay: Antiplasmodial activity against chloroquine-sensitive Plasmodium falciparum 3D7 infected in type B+ human erythrocytes assessed as inhibition of sorbitol-induced hemolysis at 10 mM after 15 min by spectrophotometry; format: functional; parameters: scale not given: the % may be the effect or the level left
# Plasmodium falciparum [5] = assay: Antiplasmodial activity against chloroquine-sensitive Plasmodium falciparum 3D7 infected in type B+ human erythrocytes assessed as inhibition of ring stage parasite after 18 hrs followed by incubation in drug-free medium for 48 hrs by stage specific inhibition assay relative to control; format: functional
# Plasmodium falciparum [6] = assay: Antiplasmodial activity against chloroquine-sensitive Plasmodium falciparum 3D7 infected in type B+ human erythrocytes assessed as inhibition of sorbitol-induced hemolysis at 5 nM after 15 min by spectrophotometry; format: functional; parameters: scale not given: the % may be the effect or the level left
# Plasmodium falciparum [7] = assay: Antiplasmodial activity against chloroquine-sensitive Plasmodium falciparum 3D7 infected in type B+ human erythrocytes assessed as inhibition of parasitemia after 48 hrs by Giemsa staining; format: functional, organism-based; conditions: 3D7, 48 h
# Plasmodium falciparum [8] = assay: Antiplasmodial activity against chloroquine-sensitive Plasmodium falciparum 3D7 infected in type B+ human erythrocytes assessed as inhibition of sorbitol-induced hemolysis at 10 uM after 15 min by spectrophotometry; format: functional; parameters: scale not given: the % may be the effect or the level left
# Plasmodium falciparum [9] = assay: Antiplasmodial activity against chloroquine-sensitive Plasmodium falciparum 3D7 infected in type B+ human erythrocytes assessed as inhibition of sorbitol-induced hemolysis at 10 nM after 15 min by spectrophotometry; format: functional; parameters: scale not given: the % may be the effect or the level left
SMILES,Activity (Plasmodium falciparum [1]) [%],inhibition (INH) (Plasmodium falciparum [2]) [%],inhibition (INH) (Plasmodium falciparum [3]) [%],Activity (Plasmodium falciparum [4]) [%],inhibition (INH) (Plasmodium falciparum [5]) [%],also measured
O=C(/C=C/c1ccc(Cl)cc1)c1ccc(-n2cncn2)cc1,47.8,65.8,40.1,36.1,48.7,–
O=C(/C=C/c1ccc(Cl)cc1)c1ccc(-n2cccc2)cc1,48.8,61.5,48.9,85.9,51.4,–
O=C(/C=C/c1ccc(Cl)cc1)c1ccc(-n2nnc3ccccc32)cc1,47.7,70.9,41,90,47.9,–
C[C@@H]1CC[C@H]2[C@@H](C)C(=O)O[C@@H]3O[C@@]4(C)CC[C@@H]1[C@]32OO4 [ARTEMISININ],48.3,–,–,–,–,Activity (Plasmodium falciparum [6]): 90.9%; IC50 (Plasmodium falciparum [7]): 4 nM
NS(=O)(=O)c1cc(C(=O)O)c(NCc2ccco2)cc1Cl [FUROSEMIDE],–,–,–,–,–,Activity (Plasmodium falciparum [8]): 56.3%
C=CC(C)(C)c1cc(/C=C/C(=O)c2ccc(O)cc2)c(OC)cc1O [LICOAGROCHACONE A],–,–,–,–,–,IC50 (Plasmodium falciparum [7]): 4.2 nM
CCc1nc(N)nc(N)c1-c1ccc(Cl)cc1 [PYRIMETHAMINE],56.3,–,–,–,–,Activity (Plasmodium falciparum [9]): 92.2%
